The source of these data is patent US4182897A, “Amino- or guanidino-phenylpropionic acid derivatives” (Torii & Co., Ltd., priority 1977, dated 1980).

Data set [1] relates to proteolytic enzymes. To be noted: prior art; cited from earlier work.
Data set [2] addresses Human Plasma Kallikrein (Homo sapiens, UniProt P03952). The experiment in a line: Inhibitory effect on ester-hydrolyzing activity of human plasma kallikrein (TAMe substrate). It counts as biochemical. To be noted: read-out: percent inhibition at 10^-3 M (kallikrein). The procedure: (A) Determination of Enzyme-inhibitory Activity: The enzyme-inhibitory activities in vitro of the compounds of this invention were measured by the following procedure according to the method of M. Muramatsu et al. [[…]. Makino, Y. Hayashi and S. Fujii: J.

The target of data set [3] is Bovine Thrombin (Bos taurus, UniProt P00735). The experiment in a line: Inhibitory effect on ester-hydrolyzing activity of bovine thrombin (TAMe substrate). It counts as biochemical. The conditions noted are these: for inhibition at 1000 µM: read-out: percent inhibition at 10^-3 M (thrombin). The procedure:
(4) Inhibitory Effect on Ester-Hydrolyzing Activity of Bovine Thrombin
It was measured by using 0.4 ml of bovine thrombin […], 0.02 M sodium phosphate buffer solution (pH 7.4) and TAMe as substrate following the method described in (1).

The subject of data set [4] is collagen induced platelet aggregation of rabbit PRP. The experiment in a line: Inhibition of collagen induced platelet aggregation of rabbit PRP. It counts as cell-based. The conditions noted are these: Oryctolagus cuniculus; for inhibition at 10 µg/mL: 10.0 μg/ml; for inhibition at 2.5 µg/mL: 2.5 μg/ml; for inhibition at 5 µg/mL: 5.0 μg/ml. The procedure: (B) Determination of Inhibitory Activity on Collagen Induced Platelet Aggregation:
According to the method of Born et al. [Born, G. V. R.: J. Physiol., 168. 178 (1963)], the platelet aggregation inhibition (%) was determined at various concentrations of compounds by the following procedure:
Rabbit PRP (platelet rich plasma), 0.9 ml, obtained from sodium citrate-added blood, was taken into a polyethylene tube and incubated at 37° C. for 1 minute, and then 10 μl of a compound solution or physiological saline as control, was added.
Subsequently, 0.1 ml of collagen solution was added, and change in absorbance of PRP, resulting from the progress of platelet aggregation, was determined by means of platelet aggregation meter and recorded.
Percent inhibition was calculated according to the following equation: [formula]

Data set [5] concerns the target T1, Human Cl Esterase (Homo sapiens, UniProt P09871).
T1 sequence (P09871 438-688 limits assumed): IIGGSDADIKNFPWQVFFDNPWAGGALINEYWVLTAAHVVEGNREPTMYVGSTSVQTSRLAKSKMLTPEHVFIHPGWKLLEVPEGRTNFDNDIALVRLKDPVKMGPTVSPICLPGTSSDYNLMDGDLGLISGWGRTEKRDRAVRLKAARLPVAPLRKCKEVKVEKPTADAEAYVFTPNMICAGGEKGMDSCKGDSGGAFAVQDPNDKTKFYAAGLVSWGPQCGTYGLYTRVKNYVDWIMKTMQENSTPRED
T1 sequence (P09871 16-437 partner limits assumed): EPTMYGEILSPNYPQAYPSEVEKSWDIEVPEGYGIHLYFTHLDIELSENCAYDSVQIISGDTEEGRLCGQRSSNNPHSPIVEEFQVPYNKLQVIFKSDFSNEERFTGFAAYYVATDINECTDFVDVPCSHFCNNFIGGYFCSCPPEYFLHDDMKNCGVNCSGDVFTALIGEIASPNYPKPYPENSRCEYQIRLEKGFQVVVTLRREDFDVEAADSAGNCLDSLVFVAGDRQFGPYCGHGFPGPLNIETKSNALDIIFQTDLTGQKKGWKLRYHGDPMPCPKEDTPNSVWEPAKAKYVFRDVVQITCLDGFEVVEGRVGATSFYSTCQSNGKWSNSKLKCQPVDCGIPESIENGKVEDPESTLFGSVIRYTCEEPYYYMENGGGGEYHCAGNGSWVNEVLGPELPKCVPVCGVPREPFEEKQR
The experiment in a line: Inhibitory effect on ester-hydrolyzing activity of human Cl esterase (ATEe substrate). It counts as biochemical. The conditions noted are these: for inhibition at 1000 µM: read-out: percent inhibition at 10^-3 M (Cl esterase); for IC50: in vitro, acetyltyrosine ethyl ester hydrolysis, read-out: ID50 (Cl esterase).
Method: It was measured by using 0.1 ml of Cl esterase, 0.1 ml of 0.02 M sodium phosphate buffer solution (pH 7.4) and 10 μmoles of ATEe (acetyltyrosine ethyl ester) as substrate following the method described in (1).

In data set [6] the target is Human Plasmin (Homo sapiens, UniProt P00747). The experiment in a line: Inhibitory effect on ester-hydrolyzing activity of human plasmin (TAMe substrate). The conditions noted are these: read-out: percent inhibition at 10^-3 M (plasmin). It counts as biochemical. The procedure: (A) Determination of Enzyme-inhibitory Activity: The enzyme-inhibitory activities in vitro of the compounds of this invention were measured by the following procedure according to the method of M. Muramatsu et al. [[…]. Makino, Y. Hayashi and S. Fujii: J. […] (2) Inhibitory Effect on Ester-hydrolyzing Activity of Human Plasmin It was measured by using 0.1 ml of plasmin (generated by activation of plasminogen with streptokinase) and TAMe as substrate following the method described in (1).

Data set [7] concerns the target T2, Trypsin (Bos taurus, UniProt P00760).
T2 sequence (P00760 24-246): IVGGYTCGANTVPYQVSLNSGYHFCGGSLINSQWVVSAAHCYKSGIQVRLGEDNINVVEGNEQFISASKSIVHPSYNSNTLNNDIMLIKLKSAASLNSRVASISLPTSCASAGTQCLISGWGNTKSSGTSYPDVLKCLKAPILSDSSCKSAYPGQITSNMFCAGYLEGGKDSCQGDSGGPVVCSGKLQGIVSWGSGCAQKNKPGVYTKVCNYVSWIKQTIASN
The experiment in a line: Inhibitory effect on ester-hydrolyzing activity of trypsin (TAMe substrate). It counts as biochemical. To be noted: for inhibition at 1000 µM: read-out: percent inhibition at 10^-3 M (trypsin). The procedure: (A) Determination of Enzyme-inhibitory Activity: The enzyme-inhibitory activities in vitro of the compounds of this invention were measured by the following procedure according to the method of M. Muramatsu et al. [[…]. Makino, Y. Hayashi and S. Fujii: J. […] Then, 10 μmoles of the substrate, TAMe (tosylarginine methyl ester), was added, and incubation was performed at 37° C. for 30 minutes. After the incubation, 1.5 ml of 2 M alkaline hydroxylamine was added and thoroughly mixed, and allowed to stand at room temperature for 15 minutes.

The subject of data set [8] is complement-dependent hemolysis of sensitized erythrocytes. The experiment in a line: Antihemolytic activity (prevention of complement-dependent hemolysis). To be noted: Erythrocyte, 10 min; for inhibition at 100 µM: 10^-4 M. It counts as cell-based. The procedure:
(C) Determination of Antihemolytic Activity: Preventions of the complement-dependent hemolysis by the compounds of this invention were measured according to the method of B. R. Baker et al. [J. Med. Chem., 12, 408-414 (1969)] by the following procedure: […] The mixture was incubated at 37° C. for 10 minutes. The reaction was stopped by adding 2.7 ml of an ice-cold citrate-saline solution, and the resulting mixture was centrifuged at 3000 rpm for 3 minutes. Absorbance of the supernatant was measured at 541 nm. As the standard, GVB^2+ (gelatin veronal buffer) was substituted for the sample solution and, as the control, GVB^2+ was substituted for the complement.

Data set [9] can be described thus: Acute toxicity by intraperitoneal administration in mice. The conditions noted are these: mouse, in vivo, ip, read-out: DL50 (acute toxicity).
The test system of data set [10] is Rat Masugi Nephritis. The experiment in a line: Effect on rat Masugi nephritis (urinary protein). It counts as in vivo, Sprague-Dawley rats. As to the method:
(D) Effect on Masugi Nephritis: The effect of Compound No. 73 on Masugi nephritis was investigated according to the method of Shibata et al. [S. Shibata: Men-ekigaku, Arerugi-gaku Jikkenho (Immunology, Experimental Methods in Allergology), p. 664, (1971), Bunkodo, Tokyo]. Male sprague-Dawley rats weighing about 200 g were divided into normal group, diseased group and treated group, each consisting of 7 rats. For the purpose of inducing nephritis, 0.5 ml of anti- "rat nephritis" rabbit serum, which had been prepared according to the method of Shibata et al., was administered intravenously to rats of both diseased and treated groups. To the normal group was intravenously administered the same quantity of physiological saline. The test drug was administered intraperitoneally to rats of the treated group three times, namely two days prior to, one day prior to and on the day of administration of the antiserum. From the rats of each group, a 24 hours urine specimen was collected on the day preceding, and the 1st, 2nd, 5th, 8th and 13th days following the administration of the antiserum. Protein contents of the urine specimen were determined by the sulfosalicylic acid method.

Where a name gives a salt, the structure may show the parent alone.

Human Plasma Kallikrein, sequence (P03952 391-638 limits assumed): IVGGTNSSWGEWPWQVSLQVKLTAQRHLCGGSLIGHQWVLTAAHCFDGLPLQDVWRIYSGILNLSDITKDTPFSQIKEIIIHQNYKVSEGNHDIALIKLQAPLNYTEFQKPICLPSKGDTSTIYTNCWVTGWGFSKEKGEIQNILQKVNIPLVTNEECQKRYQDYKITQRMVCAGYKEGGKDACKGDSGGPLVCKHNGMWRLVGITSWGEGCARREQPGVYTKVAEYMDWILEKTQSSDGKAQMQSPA
Human Plasma Kallikrein, sequence (P03952 20-390 partner limits assumed): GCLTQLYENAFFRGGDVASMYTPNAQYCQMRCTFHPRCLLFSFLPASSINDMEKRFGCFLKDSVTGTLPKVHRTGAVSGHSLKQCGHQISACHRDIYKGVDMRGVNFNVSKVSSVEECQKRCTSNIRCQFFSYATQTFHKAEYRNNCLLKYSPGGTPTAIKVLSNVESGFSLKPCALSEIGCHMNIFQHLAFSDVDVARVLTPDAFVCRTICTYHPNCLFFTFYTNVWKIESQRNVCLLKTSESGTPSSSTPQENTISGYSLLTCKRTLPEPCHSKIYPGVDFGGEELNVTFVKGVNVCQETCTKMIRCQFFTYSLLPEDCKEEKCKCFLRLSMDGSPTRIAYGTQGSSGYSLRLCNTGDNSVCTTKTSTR
Human Plasmin, sequence (P00747 581-810 limits assumed): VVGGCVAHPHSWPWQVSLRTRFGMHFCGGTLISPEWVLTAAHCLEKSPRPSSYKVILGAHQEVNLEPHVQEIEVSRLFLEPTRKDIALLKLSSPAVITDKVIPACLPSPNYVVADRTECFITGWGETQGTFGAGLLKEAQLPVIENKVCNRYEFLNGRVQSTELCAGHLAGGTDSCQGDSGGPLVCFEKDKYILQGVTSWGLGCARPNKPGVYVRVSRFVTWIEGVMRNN
Human Plasmin, sequence (P00747 97-580 partner limits assumed): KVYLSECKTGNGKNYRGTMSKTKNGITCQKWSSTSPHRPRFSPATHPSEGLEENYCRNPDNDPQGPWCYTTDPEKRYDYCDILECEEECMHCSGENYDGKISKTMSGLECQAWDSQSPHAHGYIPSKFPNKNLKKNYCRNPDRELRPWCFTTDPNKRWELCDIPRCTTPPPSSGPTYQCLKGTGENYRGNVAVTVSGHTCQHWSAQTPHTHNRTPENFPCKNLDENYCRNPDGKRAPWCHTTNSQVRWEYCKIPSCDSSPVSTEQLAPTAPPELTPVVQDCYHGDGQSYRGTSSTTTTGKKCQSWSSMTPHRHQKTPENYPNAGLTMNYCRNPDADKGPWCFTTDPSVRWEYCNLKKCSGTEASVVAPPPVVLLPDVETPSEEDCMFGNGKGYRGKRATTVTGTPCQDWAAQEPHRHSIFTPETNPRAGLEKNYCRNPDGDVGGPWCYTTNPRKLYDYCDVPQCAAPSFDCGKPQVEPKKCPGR

With `N=C(N)c1ccc(CC(=O)C(=O)O)cc1` [4-amidinophenylpyruvic acid], in data set [1], the “inhibitory activity to proteolytic enzymes” value is given as “inhibitory activity to proteolytic enzymes” and the “specificity of enzyme inhibition” value is “low in specificity”.
As for `Cc1ccc(OC(=O)CCc2ccc(N)cc2)cc1` [Compound No. 1, p-Methylphenyl β-(p-aminophenyl)-propionate hydrochloride], the inhibition at 1000 µM in data set [2], in [5], in data set [6] and in data set [7] was < 10% each time. In [3], this molecule showed an IC50 of 880 µM. For the same molecule, testing at 10 µg/mL in data set [4] gave an inhibition of 42%.
For the molecule `CCC(Cc1ccc(NC(=N)N)cc1)C(=O)Oc1ccccc1` (stereo not drawn) [Compound No. 73, phenyl α-ethylβ-(p-guanidinophenyl)-propionate], the inhibition at 1000 µM was 31.5% in data set [2]; < 10% in [3]; < 10% in data set [6]; 69.1% in data set [8] (10^-3 M); 43.9% in data set [7]. Moreover, the IC50 in [5] was found to be 310 µM. For the same molecule, the inhibition at 100 µM in [8] amounted to 30%. Further, the LD50 in data set [9] is 129 mg/kg. For the same molecule, the Protein in urine stood at 34.0 mg/day in data set [10] (12.5 mg/kg i.p. x3, day 1 after antiserum); 42.5 mg/day in data set [10] (12.5 mg/kg i.p. x3, day 2 after antiserum); 45.6 mg/day in data set [10] (12.5 mg/kg i.p. x3, day 5 after antiserum); 76.3 mg/day in [10] (12.5 mg/kg i.p. x3, day 8 after antiserum); 115.5 mg/day in data set [10] (12.5 mg/kg i.p. x3, day 13 after antiserum); 6.0 mg/day in data set [10] (12.5 mg/kg i.p. x3, day -1). Further, the Protein in urine is listed as 41.1 mg/day in [10] (25.0 mg/kg i.p. x3, day 1 after antiserum); 33.9 mg/day in data set [10] (25.0 mg/kg i.p. x3, day 2 after antiserum); 39.4 mg/day in data set [10] (25.0 mg/kg i.p. x3, day 5 after antiserum); 63.3 mg/day in data set [10] (25.0 mg/kg i.p. x3, day 8 after antiserum); 71.5 mg/day in data set [10] (25.0 mg/kg i.p. x3, day 13 after antiserum); 4.2 mg/day in [10] (25.0 mg/kg i.p. x3, day -1).
On to `CCOC(=O)c1ccc(OC(=O)CCCCCNC(=N)N)cc1.CS(=O)(=O)O` [FOY, ethyl p-(6-guanidinohexanoyloxy)benzoate methanesulfonate], for which, in [1], the “inhibitory activity to proteolytic enzymes” value is given as “inhibitory activity to proteolytic enzymes” and the “specificity of enzyme inhibition” value is on record as “low in specificity”.
As to `COc1ccc(OC(=O)CCc2ccc(N)cc2)cc1` [compound 32, p-methoxyphenyl β-(p-aminophenyl)-propionate], the inhibition at 1000 µM in [2] is < 10%; in data set [5], < 10%; in data set [6], < 10%; in data set [7], 38.8%. For the same molecule, the IC50 in [3] worked out at 170 µM. Besides, testing at 2.5 µg/mL in [4] gave an inhibition of 41%. This molecule yielded an inhibition at 5 µg/mL in [4] of 100%. Further, at 10 µg/mL the inhibition in data set [4] was 100%.
As to `CCCCOc1ccc(OC(=O)CCc2ccc(N)cc2)cc1` [compound 33, p-n-butoxyphenyl β-(p-aminophenyl)-propionate], the inhibition at 1000 µM in data set [2] is < 10%; in [3], 19.9%; in [5], < 10%; in [6], < 10%. Besides, the inhibition at 0.5 µg/mL in data set [4] (0.5 μg/ml) is 46%. The same molecule registered an inhibition at 1 µg/mL in [4] (1.0 μg/ml) of 100%. Besides, the inhibition at 2.5 µg/mL in data set [4] amounted to 100%. In [4], the inhibition at 5 µg/mL turned out to be 100%. Moreover, the inhibition at 10 µg/mL in data set [4] came out at 100%. For the same molecule, the IC50 in [7] (in vitro, tosylarginine methyl ester hydrolysis, read-out: ID50 (trypsin)) is 890 µM.
For the molecule `CC(Cc1ccc(NC(=N)N)cc1)C(=O)Oc1cccc2ccccc12` (stereo not drawn) [compound 54, 1-naphthyl α-methyl-β-(p-guanidinophenyl)-propionate], the inhibition at 100 µM in data set [8] was 49.3%.
Turning to `CCCC(Cc1cccc(NC(=N)N)c1)C(=O)Oc1ccccc1` (stereo not drawn) [compound 68, phenyl α-n-propyl-β-(m-guanidinophenyl)-propionate], the inhibition at 1000 µM in data set [2] was 17.6%; in data set [3], < 10%; in data set [6], 22%; in data set [7], < 10%. Moreover, the IC50 in [5] was determined as 430 µM. Besides, the inhibition at 100 µM in data set [8] stood at 30%.
Regarding `CCOC(=O)c1ccc(OC(=O)C(CC)Cc2ccc(NC(=N)N)cc2)cc1` (stereo not drawn) [compound 76, p-ethoxycarbonylphenylα-ethyl-β-(p-guanidinophenyl)-propionate], the inhibition at 100 µM in [8] amounted to 33%.

One may read the inhibition as the relative decrease from the control value, in per cent.
